Key:
[1] = target: T1, Cathepsin F (Homo sapiens) (UniProt Q9UBX1); test: Inhibition of human cathepsin F incubated for 15 mins using Z-Phe-Arg-AMC substrate by spectrofluorometry
T1 sequence (whole entry): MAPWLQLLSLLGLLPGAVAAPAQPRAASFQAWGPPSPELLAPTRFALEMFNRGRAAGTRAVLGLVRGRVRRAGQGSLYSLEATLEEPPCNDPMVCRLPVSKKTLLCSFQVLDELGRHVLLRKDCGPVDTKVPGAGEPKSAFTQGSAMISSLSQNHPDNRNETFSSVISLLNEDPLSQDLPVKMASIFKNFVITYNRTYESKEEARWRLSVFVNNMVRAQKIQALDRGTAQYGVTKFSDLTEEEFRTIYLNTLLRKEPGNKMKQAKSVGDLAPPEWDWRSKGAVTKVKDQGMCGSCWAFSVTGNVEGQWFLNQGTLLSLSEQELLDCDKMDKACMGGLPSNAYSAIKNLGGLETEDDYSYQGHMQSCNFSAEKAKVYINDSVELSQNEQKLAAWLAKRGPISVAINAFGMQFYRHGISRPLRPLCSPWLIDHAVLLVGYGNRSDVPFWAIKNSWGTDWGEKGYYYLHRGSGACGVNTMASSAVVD

[2] = target: T2, Cathepsin K (Homo sapiens) (UniProt P43235); test: Inhibition of human cathepsin K incubated for 15 mins using Z-Leu-Arg-AMC substrate by spectrofluorometry
T2 sequence (whole entry): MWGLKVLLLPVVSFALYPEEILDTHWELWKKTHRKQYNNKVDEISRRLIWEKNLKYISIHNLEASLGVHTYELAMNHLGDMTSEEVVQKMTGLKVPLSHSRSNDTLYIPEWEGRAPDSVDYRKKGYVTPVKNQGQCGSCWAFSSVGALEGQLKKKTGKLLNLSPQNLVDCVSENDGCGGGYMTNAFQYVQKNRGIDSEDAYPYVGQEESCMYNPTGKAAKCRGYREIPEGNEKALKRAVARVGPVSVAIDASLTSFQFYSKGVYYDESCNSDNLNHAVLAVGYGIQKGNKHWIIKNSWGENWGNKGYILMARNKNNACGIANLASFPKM

IP [1] [nM] | IP [2] [nM] | Structure (SMILES)
3140 | 2.8 | C[C@@H](C#N)NC(=O)[C@@H]1C[C@@H](F)CC[C@H]1c1nc(C2(C(F)(F)F)CC2)sc1-c1ccc(N2CCS(=O)(=O)CC2)cc1
3330 | 1.7 | N#CC1(NC(=O)[C@@H]2CCCC[C@H]2c2nc(-c3cccc(C4CCOCC4)c3)sc2-c2ccc(N3CCS(=O)(=O)CC3)cc2)CC1
1000 | 5.8 | N#CC1(NC(=O)[C@@H]2CCCC[C@H]2c2nc(C3CC(F)(F)C3)sc2-c2ccc(N3CCS(=O)(=O)CC3)cc2)CC1
851 | 0.7 | CC(C)(C)c1nc([C@@H]2CCCC[C@H]2C(=O)NCC#N)c(-c2ccc(N3CCS(=O)(=O)CC3)cc2)s1
